Laboratory results as given in US20130205416A1 (priority 2010, published 2013).
“And” between values parts separate entries of the source, which are not always exact repeats. Equal entries are not always repeated. Square brackets hold non-standard residues; d marks the D form. Ends that are not written are not given here.

What was measured:
[1] = tested on: H1N1 viruses (A/WSN/33 and A/England/195/09); details: for IC50: viruses (A/WSN/33 and A/England/195/09)
[2] = tested on: attachment of A/WSN/33 (H1N1) virus to MDCK cells; format: cell-based, Influenza A virus
[3] = tested on: H3N2 viruses (A/Udorn and A/Victoria/3/75); details: for IC50: viruses (A/Udorn and A/Victoria/3/75)
A/WSN/33 H1N1 virus [4] = format: cell-based, Influenza A virus
[5] = target: recombinant Haemagglutinin (HA) (California 04/2009 H1N1 Influenza A) (Influenza A virus, UniProt C3W5S1); format: binding
A/WSN/33 H1N1 virus [6] = format: cell-based, Influenza A virus; remark: listed apart in the source
[7] = mouse, in vivo
A/WSN/33 influenza virus = tested on: A/WSN/33 influenza virus; set-up: species or system BALB/c mice; details: mouse
[8] = tested on: PR8/Viet H5N1 virus (A/Vietnam/1194/04); format: cell-based, Influenza A virus
[9] = tested on: PR8/Vic H3N2 virus (A/Victoria/3/75); format: cell-based, Influenza A virus
[10] = tested on: PR8/Eng09 H1N1 virus (A/England/195/09); format: cell-based, Influenza A virus
[11] = tested on: human parainfluenza virus; format: cell-based
[12] = tested on: Semliki Forest virus (SFV); format: cell-based

recombinant Haemagglutinin (HA) (California 04/2009 H1N1 Influenza A), sequence (C3W5S1 entry or part of it, added parts left off): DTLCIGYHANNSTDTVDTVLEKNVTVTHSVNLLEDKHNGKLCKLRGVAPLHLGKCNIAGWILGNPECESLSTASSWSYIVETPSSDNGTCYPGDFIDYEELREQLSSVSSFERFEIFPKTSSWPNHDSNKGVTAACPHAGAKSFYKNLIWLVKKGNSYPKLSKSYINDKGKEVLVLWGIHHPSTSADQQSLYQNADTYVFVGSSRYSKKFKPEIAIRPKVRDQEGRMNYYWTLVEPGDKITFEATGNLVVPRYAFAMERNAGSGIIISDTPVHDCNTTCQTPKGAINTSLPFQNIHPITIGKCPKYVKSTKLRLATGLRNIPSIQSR

## WLVFFVIFYFFRRRKK [FP3, WLVFFVIFYFFRRRKK]
[1]
  IC50: 66 to 100 nM
[2]
  inhibition of viral attachment: completely inhibited
[3]
  inhibition of H3N2 infection: only weakly inhibit
  IC50: 16000 nM
Human RBCs
  agglutination end point: 0.78 µg/mL
Horse RBCs
  agglutination end point: 6.25 µg/mL
A/WSN/33 H1N1 virus [4]
  knockdown of plaque formation: 100%
[5]
  binding to HA: can bind Influenza A HA

## RRKK-IFYFFR [FP7]
[1]
  inhibition of H1N1 infection: failed to inhibit
[3]
  inhibition of H3N2 infection: failed to inhibit

## PEG300-RRKKWLVFFVIFYFFR [FP4-PEG]
A/WSN/33 H1N1 virus [6]
  reduction in virus yield: 68%
  virus yield: No virus was detected

## FFVIFYRRKK [FP9, FFVIFYRRKK]
[1]
  inhibition of H1N1 infection: very effective
  IC50: 1500 nM
[3]
  inhibition of H3N2 infection: to a lesser extent
A/WSN/33 H1N1 virus [4]
  anti-viral activity: substantial anti-viral activity
  knockdown of plaque formation: 94%

## RRKKWLVFFVIYFFR [FP4, RRKKWLVFFVIYFFR]
[1]
  IC50: 66 to 100 nM
[7]
  immunogenicity (serum IgG by ELISA): neither FP2 nor FP4 peptides were immunogenic
A/WSN/33 influenza virus
  inhibition of lung viral titres in vivo: effective
A/WSN/33 influenza virus; in vivo
  clinical indications: no clinical indications
  survival of mice: 100%
[8]
  knockdown: complete knockdown
Human RBCs
  agglutination end point: 0.78 µg/mL
[9]
  knockdown: 97%
Horse RBCs
  agglutination end point: 6.25 µg/mL
[10]
  knockdown: 90%
A/WSN/33 H1N1 virus [6]
  reduction in virus yield: 99% and 50%
A/WSN/33 H1N1 virus [4]
  knockdown of plaque formation: 100%

## WLVFFVIAYFAR [FP2, WLVFFVIAYFAR]
[1]
  IC50: 1.6 nM
[3]
  IC50: 1.6 nM

## WLVFFVIFYFFR [FP1]
A/WSN/33 influenza virus
  antiviral activity in vivo (body weight, lung virus titre): potent antiviral activity
[11]
  antiviral effects: no antiviral effects
[12]
  antiviral effects: no antiviral effects
A/WSN/33 H1N1 virus [4]
  knockdown of plaque formation: 94%

## WLVFFVRRKK [FP8]
A/WSN/33 H1N1 virus [4]
  anti-viral activity: substantial anti-viral activity
  knockdown of plaque formation: 94%

## FP1-D: FP1 prepared with D-amino acids (SEQ ID NO 20) ([dW][dL][dV][dF][dF][dV][dI][dF][dY][dF][dF][dR])
[1]
  inhibition of H1N1 virus infection: inhibit
[3]
  inhibition of H3N2 virus infection: inhibit
A/WSN/33 H1N1 virus [6]
  reduction in virus yield: 85% and 68%

## IVWFYLFRFFVF [FP10, IVWFYLFRFFVF]
[1]
  IC50: < 1.48 nM
A/WSN/33 influenza virus
  inhibition of lung viral titres in vivo: values similar to the control groups
[3]
  IC50: 72 nM
